Experimental data as given in article PMC8230565, “Bisavenathramide Analogues as Nrf2 Inductors and Neuroprotectors in In Vitro Models of Oxidative Stress and Hyperphosphorylation” (Antioxidants, 2021).

Legend:
[1] = DPPH radical scavenging assay; conditions: n in brackets
Procedure: The direct antioxidant effects of compounds 3 were investigated by studying their radical-scavenging effect on the 2,2-diphenyl-1-picrylhydrazyl free radical (DPPH^•). Thus, a 100 μL volume of a methanol solution of each compound was added to 200 μL of 100 μM methanolic DPPH^•, and the solution was kept in the dark at 37 °C for 30 min in a 96-well microliter plate. After this incubation, the absorption at 490 nm of each solution was measured with a microplate reader in order to quantitate its decrease. A blank reading was also taken to calculate the amount of remaining DPPH^•. The radical-scavenging activity exerted by compounds 3 was determined by comparison with a 10 μL of MeOH-treated blank group. Ascorbic acid, a well-known antioxidant acting as a radical scavenger, was used as reference. All samples were analyzed in triplicate. Percent inhibition of the DPPH^• radical was calculated using the equation shown below, where AbsCtrl is the absorbance of the blank group and Abss is the absorbance of the samples containing compounds 3. For each compound showing a percentage of inhibition above 60%, the IC50 value was determined using a dose–response curve obtained from measurements corresponding to at least six concentrations. %Scavenger=AbsCtrl−AbsS/AbsCtrl×100
The radical scavenging activity of all compounds was first studied by the DPPH assay, which measures the ability of antioxidant compounds to donate a hydrogen atom to the violet 2,2-diphenyl-1-picrylhydrazyl radical and transform it into a nonradical species. Thus, it is generally considered to belong to the hydrogen atom transfer (HAT) category of methods for measurement of antioxidant activity.

[2] = Ferric reducing antioxidant power (FRAP) assay; set-up: key to FRAP TEAC: trolox equivalents (TEAC), relative to trolox; conditions: for FRAP nmol Fe2+ at 30 µM: 30 µM compound, n in brackets; for FRAP TEAC: 30 µM, relative to trolox
Procedure: A ferric reducing antioxidant power (FRAP) kit assay purchased from Sigma-Aldrich (Madrid, Spain) was employed for the experiments. The antioxidant solutions, FRAP assay buffer solution, FeCl3 solution, and FRAP probe solution were kept in ice during the preparation of the plate. A calibration standard curve was prepared by using the 2 mM ferrous standard solution provided in the FRAP kit assay. Appropriate aliquots of this solution were taken and diluted up to a 200 μL final volume with FRAP buffer. The final ferrous concentrations measured in the well were: 0, 20, 40, 60, 80, and 100 μM. Each concentration value was prepared and measured by triplicate. Stock solutions of compounds 3, as well as reference compounds trolox and ferulic acid, were freshly prepared in 95% ethanol at […]. Aliquots of 10 μL of compounds 3 and the reference compounds were mixed with 19 μL FeCl3 solution and 19 μL FRAP probe solution, and then completed to a final volume of 200 μL with FRAP assay buffer solution. The final concentration of antioxidants and references was 30 μM. Compounds 3, reference compounds, as well as the corresponding blank solutions (one for each compound to be assayed, avoiding the chromogenic FRAP probe), and positive control were thoroughly mixed in vortex for 1–2 min with the reaction chromogenic media, and then were incubated under darkness at 37 °C in the dry bath, and using the device for support well-plates. Each compound to be assayed and the reference antioxidant compounds were prepared and measured by triplicate. The absorbance values were measured at 594 nm after 5 min of reaction and, to assure complete reaction, the absorbance values after 60 min of incubation at 37 °C in the dry bath were also measured. The absorbance values of the sample antioxidant compounds were corrected by subtracting the corresponding absorbance values of the blanks, and then they were introduced in the calibration curve and the ferrous equivalents were determined. The reference antioxidants employed for this assay were trolox and ferulic acid, which were obtained from Sigma-Aldrich (Madrid, Spain). Ultrapure water was obtained from a Milli-Q Direct 8 system (Millipore, Molsheim, France).
In order to achieve a broader insight into the antioxidant profile of our compounds, we also examined them using a single electron transfer (SET)-based method, namely the ferric reducing antioxidant power (FRAP) assay, which measures the ability of an antioxidant to reduce the ferric ion in the TPTZ (2,4,6-tri(2-pyridyl)-1,3,5-triazine)-Fe(III) complex.

SH-SY5Y cells [3] = assay: Neuroprotection against okadaic acid in SH-SY5Y cells (MTT); assay type: cell-based; conditions: Homo sapiens, SH-SY5Y, 18 h; 1 µM compound; okadaic acid 20 nM; read-out: % Neuroprotection ± SEM at 1 µM (okadaic acid)
Procedure: Neuroprotection studies against tau hyperphosphorylation exerted by okadaic acid (OA) were evaluated using the SH-SY5Y cell line as follows. […] After 18 h, cell viability was addressed by the MTT reduction method. MTT (5 mg/mL, 10 μL/well) was added and incubated for 2 h. Then, the medium was removed and the purple formazan crystals formed by viable cells were dissolved using 100 μL of DMSO. A FluoStar Optima spectrophotometer (BMG Labtech, Ortenberg, Baden-Württemberg, Germany) was used to measure the absorbance at 570 nm.
Okadaic acid is a potent inhibitor of protein phosphatase 2A (PP2A), thereby inducing tau hyperphosphorylation. For this reason, it can be employed as a model of neurodegenerative-disease-connected tau hyperphosphorylation, a well-known feature of Alzheimer’s disease, but present also in other NDDs, collectively known as tauopathies and characterized by the pathological aggregation of hyperphosphorylated tau in neurofibrillary tangles. […] Tau hyperphosphorylation is connected to oxidative stress, which activates p38 and deactivates calcineurin, a phosphatase involved in tau dephosphorylation by increasing RCAN1, its natural repressor [34, 35]. Indeed, hyperphosphorylation and oxidative stress have been proposed to generate a vicious circle that is critical to the advance of neurodegenerative tauopathies.

SH-SY5Y cells [4] = assay: Neuroprotection against rotenone/oligomycin A in SH-SY5Y cells (MTT); assay type: cell-based; conditions: Homo sapiens, 24 h, 1 µM compound, rotenone 30 µM + oligomycin A 10 µM, read-out: % Neuroprotection ± SEM at 1 µM (rotenone/oligomycin A)
Procedure: To evaluate the compounds for their neuroprotective effect in an oxidative stress model, we selected the rotenone (30 μM) and oligomycin A (10 μM) (R/O) cocktail, which disturbs the flow of electrons in the mitochondrial respiratory chain. Similarly, SH-SY5Y cells were preincubated with compounds 3 at 1 μM for 24 h. Then, they were co-incubated in the presence of R/O for a further 24 h, evaluating cell viability by the MTT reduction method.
Thus, the R/O combination constitutes a good model of oxidative stress and neurodegeneration with a mitochondrial origin, and has been broadly employed to evaluate potential hit compounds for the treatment of neurodegenerative diseases. Furthermore, treatment of laboratory animals with rotenone is known to induce many features associated to Parkinson’s disease, such as selective nigrostriatal dopaminergic degeneration and the appearance of α-synuclein cytoplasmic inclusions, which are associated with oxidative damage.

| Structure (SMILES) | IC50 [1] [µM] | FRAP nmol Fe2+ at 30 µM [2] | FRAP TEAC [2] | % neuroprotection against okadaic acid at 1 µM (SH-SY5Y cells [3]) [%] | % neuroprotection against rotenone/oligomycin A toxicity at 1 µM (SH-SY5Y cells [4]) [%] |
| --- | --- | --- | --- | --- | --- |
| O=C1O[C@H]([C@@H](O)CO)C(O)=C1O [Ascorbic acid, reference compound] | 16.2 ± 0.7 |  |  |  |  |
| COc1cc(/C=C/C(=O)O)ccc1O [Ferulic acid, reference compound] |  | 1.98 ± 0.04 (3) nmol Fe^2+ | 0.87 |  |  |
| COc1ccc2[nH]cc(CCNC(C)=O)c2c1 [Melatonin, reference compound] |  |  |  | 67.7 ± 13.9 | 61.4 ± 8.75 |
| Cc1c(C)c2c(c(C)c1O)CCC(C)(C(=O)O)O2 (centres unmarked) [Trolox, reference compound] | 11.4 ± 1 | 2.28 ± 0.15 (9) nmol Fe^2+ | 1.00 |  |  |
